Consider 24 compounds from patent US20100331305A1, “OXO-HETEROCYCLE FUSED PYRIMIDINE COMPOUNDS, COMPOSITIONS AND METHODS OF USE” (Genentech, Inc., priority 2009, published 2010).

“And” between values parts separate entries of the source, which are not always exact repeats. Identical values can stand only once.

mTOR enzyme (mTOR(1360-2549)+GBL), sequence (P42345 1360-2549, species assumed): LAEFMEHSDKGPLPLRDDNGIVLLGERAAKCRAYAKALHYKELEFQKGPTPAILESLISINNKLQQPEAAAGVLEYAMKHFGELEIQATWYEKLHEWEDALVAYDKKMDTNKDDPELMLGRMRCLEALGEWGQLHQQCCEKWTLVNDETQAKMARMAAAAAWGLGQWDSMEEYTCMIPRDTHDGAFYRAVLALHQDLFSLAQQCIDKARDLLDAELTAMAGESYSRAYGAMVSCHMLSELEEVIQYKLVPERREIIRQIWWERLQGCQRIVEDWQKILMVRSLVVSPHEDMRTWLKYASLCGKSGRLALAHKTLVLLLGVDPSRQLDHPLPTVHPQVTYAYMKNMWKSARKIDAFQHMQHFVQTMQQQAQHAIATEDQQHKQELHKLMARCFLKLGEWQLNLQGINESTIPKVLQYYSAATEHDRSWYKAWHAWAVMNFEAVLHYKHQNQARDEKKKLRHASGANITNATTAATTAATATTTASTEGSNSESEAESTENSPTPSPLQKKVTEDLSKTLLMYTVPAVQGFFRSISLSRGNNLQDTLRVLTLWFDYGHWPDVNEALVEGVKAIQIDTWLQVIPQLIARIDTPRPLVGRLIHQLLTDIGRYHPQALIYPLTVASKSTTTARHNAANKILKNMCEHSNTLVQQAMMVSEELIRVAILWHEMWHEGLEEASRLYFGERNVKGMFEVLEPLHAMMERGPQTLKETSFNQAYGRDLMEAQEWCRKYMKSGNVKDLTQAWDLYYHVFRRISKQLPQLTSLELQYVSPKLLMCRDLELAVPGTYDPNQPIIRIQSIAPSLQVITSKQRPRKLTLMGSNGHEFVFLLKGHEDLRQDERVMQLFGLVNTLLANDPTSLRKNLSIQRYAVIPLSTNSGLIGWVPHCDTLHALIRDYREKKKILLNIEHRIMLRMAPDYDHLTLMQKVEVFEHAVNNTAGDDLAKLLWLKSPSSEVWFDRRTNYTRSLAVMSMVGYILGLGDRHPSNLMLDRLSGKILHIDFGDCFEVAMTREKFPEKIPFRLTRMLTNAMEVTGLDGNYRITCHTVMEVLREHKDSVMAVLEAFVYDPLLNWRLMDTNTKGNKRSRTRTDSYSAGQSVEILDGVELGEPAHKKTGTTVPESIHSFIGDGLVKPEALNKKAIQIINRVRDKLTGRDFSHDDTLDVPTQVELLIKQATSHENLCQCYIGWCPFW
mTOR enzyme (mTOR(1360-2549)+GBL), sequence (Q9BVC4 whole entry partner, species assumed): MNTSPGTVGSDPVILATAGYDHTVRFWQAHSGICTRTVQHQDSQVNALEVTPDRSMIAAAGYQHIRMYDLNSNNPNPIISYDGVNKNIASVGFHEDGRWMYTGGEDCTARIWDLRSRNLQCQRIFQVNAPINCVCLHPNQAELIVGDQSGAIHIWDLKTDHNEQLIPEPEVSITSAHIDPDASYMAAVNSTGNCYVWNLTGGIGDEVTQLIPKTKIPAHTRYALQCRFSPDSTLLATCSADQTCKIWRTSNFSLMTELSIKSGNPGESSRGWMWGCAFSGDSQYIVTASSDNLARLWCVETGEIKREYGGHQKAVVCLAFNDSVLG

This assay has as its target mTOR enzyme (mTOR(1360-2549)+GBL) (Homo sapiens, UniProt P42345). The assay is described as follows: In vitro mTOR kinase assay (TR-FRET). Type of assay: biochemical. As to conditions: 0.25 nM mTOR+GBL, 8 uM ATP; values tied to compounds by order of Table 1; 'x or y' = two alternative values for separated diastereomers of unassigned stereochemistry; read-out: activity level (Ki) in the mTOR kinase assay. The source says: a. In Vitro mTOR Kinase Assay
The reaction is stopped by an addition of a Terbium-labeled phospho-specific antibody, e.g., Tb-labeled anti-p4E-BP1 T37/T46, (Invitrogen, product #PR8835A), EDTA, and TR-FRET buffer solution (Invitrogen, Product #PR3756B). Product formation is detected by way of time-resolved fluorescence resonance energy transfer (TR-FRET), which occurs when the phosphorylated substrate and labeled antibody are in close proximity due to phospho-specific binding. Enzymatic activity is measured as an increase in TR-FRET signal using a Perkin Elmer Envision plate reader.
Compound activity is tested in 10 point dose curves starting at the highest final concentration of 10 uM. They are serially diluted in 100% DMSO prior to further dilution with assay buffer. […] 8 μL of solution containing 2 nM Tb-anti-p4E-BP1 antibody & 10 mM EDTA diluted TR-FRET buffer is then added and incubated for 30 minutes to stop the reaction. The plate is scanned with the Envision plate reader. Ki values are calculated in Assay Explorer using the Morrison ATP-competitive tight binding equation for Ki apparent determination.
Background: Time-resolved FRET reads energy transfer from a long-lived donor to a nearby acceptor.
With `CCNC(=O)Nc1ccc(-c2nc3c(c(N4CCOCC4C)n2)C2CCC(C3)O2)cc1` (single isomer, unassigned) [Example 62 do^2], the Ki (as a rule, the dissociation constant of the complex between target and ligand, obtained from inhibition or displacement) is 6 nM and 2 nM. Regarding `CC1COCCN1c1nc(-c2ccc(NC(=O)NC3COC3)cc2)nc2c1C1CCC(C2)O1` (single isomer, unassigned) [Example 63 dp^2], the Ki is 10 nM and 2 nM. The value for `CCNC(=O)N(CC)C(=O)Nc1ccc(-c2nc3c(c(N4CCOCC4)n2)CCOC3)cc1` [Example 12, 1-ethyl-1-((ethylamino)carbonyl)-3-(4-(4-morpholino-6,8-dihydro-5H-pyrano[3,4-d]pyrimidin-2-yl)phenyl)urea] was 4330 nM.

Consider `CCNC(=O)N(CC)C(=O)Nc1ccc(-c2nc3c(c(N4CCOC[C@@H]4C)n2)CCOC3)cc1` [Example 13 am, (S)-1-ethyl-1-((ethylamino)carbonyl)-3-(4-(4-(3-methylmorpholino)-6,8-dihydro-5H-pyrano[3,4-d]pyrimidin-2-yl)phenyl)urea], for which the Ki worked out at 1180 nM. In the case of `C[C@H]1COCCN1c1nc(-c2ccc(S(C)(=O)=O)cc2)nc2c1COCC2` [Example 36, (S)-4-(3-methylmorpholino)-2-(4-(methylsulfonyl)phenyl)-7,8-dihydro-5H-pyrano[4,3-d]pyrimidine] it was 102 nM; in that of `CNS(=O)(=O)c1ccc(-c2nc3c(c(N4CCOC[C@@H]4C)n2)COCC3)cc1` [Example 37, (S)—N-methyl-4-(4-(3-methylmorpholino)-7,8-dihydro-5H-pyrano[4,3-d]pyrimidin-2-yl)benzenesulfonamide], 343 nM; in that of `C[C@H]1COCCN1c1nc(-c2ccc(NS(C)(=O)=O)cc2)nc2c1COCC2` [Example 38, (S)—N-(4-(4-(3-methylmorpholino)-7,8-dihydro-5H-pyrano[4,3-d]pyrimidin-2-yl)phenyl)methanesulfonamide], 272 nM. The value for `C[C@H]1COCCN1c1nc(-c2ccc(NS(=O)(=O)C3CC3)cc2)nc2c1COCC2` [Example 39, (S)—N-(4-(4-(3-methylmorpholino)-7,8-dihydro-5H-pyrano[4,3-d]pyrimidin-2-yl)phenyl)cyclopropanesulfonamide] was 270 nM; that for `CCS(=O)(=O)Nc1ccc(-c2nc3c(c(N4CCOC[C@@H]4C)n2)COCC3)cc1` [Example 40, (S)—N-(4-(4-(3-methylmorpholino)-7,8-dihydro-5H-pyrano[4,3-d]pyrimidin-2-yl)phenyl)ethanesulfonamide] was 183 nM.

Turning to `COC1CCN(c2nc(-c3ccc(NC(=O)NC4COC4)cc3)nc3c2CCC2(CC2)O3)CC1` [Example 46, 1-(4-(4′-(4-methoxypiperidin-1-yl)-5′,6′-dihydrospiro[cyclopropane-1,7′-pyrano[2,3-d]pyrimidine]-2′-yl)phenyl)-3-(oxetan-3-yl)urea], the Ki was 620 nM. The value for `COC1CCN(c2nc(-c3ccc(NC(=O)Nc4ccn(C)n4)cc3)nc3c2CCC2(CC2)O3)CC1` [Example 47, 1-(4-(4′-(4-methoxypiperidin-1-yl)-5′,6′-dihydrospiro[cyclopropane-1,7′-pyrano[2,3-d]pyrimidine]-2′-yl)phenyl)-3-(1-methyl-1H-pyrazol-3-yl)urea] was 884 nM. The value for `COC1CCN(c2nc(-c3ccc(Nc4nccc(=O)[nH]4)cc3)nc3c2CCC2(CC2)O3)CC1` [Example 48, 2-(4-(4′-(4-methoxypiperidin-1-yl)-5′,6′-dihydrospiro[cyclopropane-1,7′-pyrano[2,3-d]pyrimidine]-2′-yl)phenylamino)pyrimidin-4(3H)-one] was 392 nM. As for `Nc1nc2ccc(-c3nc4c(c(N5C[C@H]6CC[C@@H](C5)O6)n3)CCCO4)cc2[nH]1` [Example 61, 6-(4-((1R,5S)-8-oxa-3-azabicyclo[3.2.1]octan-3-yl)-6,7-dihydro-5H-pyrano[2,3-d]pyrimidin-2-yl)-1H-benzo[d]imidazol-2-amine], the Ki was found to be 12 nM. The value for `C[C@H]1COCCN1c1nc(-c2ccc3nc(N)[nH]c3c2)nc2c1CCCO2` [Example 64, (S)-6-(4-(3-methylmorpholino)-6,7-dihydro-5H-pyrano[2,3-d]pyrimidin-2-yl)-1H-benzo[d]imidazol-2-amine] was 122 nM; that for `CCNC(=O)Nc1ccc(-c2nc(N3CCOC[C@@H]3C)c3c(n2)[C@@](C)(CCN2CCOCC2)OC3)cc1` [Example 76 eo (R), 1-ethyl-3-(4-((R)-7-methyl-4-((S)-3-methylmorpholino)-7-(2-morpholinoethyl)-5,7-dihydrofuro[3,4-d]pyrimidin-2-yl)phenyl)urea] was 15 nM; that for `CCNC(=O)Nc1ccc(-c2nc(N3CCOC[C@@H]3C)c3c(n2)[C@@](C)(CCN2CCC2)OC3)cc1` [Example 79 er (R), 1-(4-((R)-7-(2-(azetidin-1-yl)ethyl)-7-methyl-4-((S)-3-methylmorpholino)-5,7-dihydrofuro[3,4-d]pyrimidin-2-yl)phenyl)-3-ethylurea] was 57 nM.

In the case of `CCNC(=O)Nc1ccc(-c2nc3c(c(N4CCOC[C@@H]4C)n2)COC3=O)cc1` [Example 90, (S)-1-ethyl-3-(4-(4-(3-methylmorpholino)-7-oxo-5,7-dihydrofuro[3,4-d]pyrimidin-2-yl)phenyl)urea], the Ki amounted to 76 nM. In the case of `COCC[C@@]1(C)OCc2c(N3CCOC[C@@H]3C)nc(-c3cnc(N)nc3)nc21` [Example 101 go (R), 5-((R)-7-(2-methoxyethyl)-7-methyl-4-((S)-3-methylmorpholino)-5,7-dihydrofuro[3,4-d]pyrimidin-2-yl)pyrimidin-2-amine] it was 258 nM.

For `COCC[C@]1(C)OCc2c(N3CCOC[C@@H]3C)nc(-c3cnc(N)nc3)nc21` [Example 101 go (S), 5-((S)-7-(2-methoxyethyl)-7-methyl-4-((S)-3-methylmorpholino)-5,7-dihydrofuro[3,4-d]pyrimidin-2-yl)pyrimidin-2-amine], the Ki turned out to be 393 nM.

As to `C[C@H]1COCCN1c1nc(-c2cnc(N)nc2)nc2c1CO[C@]2(C)CCOc1ccccc1` [Example 104 gs (R), 5-((R)-7-methyl-4-((S)-3-methylmorpholino)-7-(2-phenoxyethyl)-5,7-dihydrofuro[3,4-d]pyrimidin-2-yl)pyrimidin-2-amine], the Ki stood at 297 nM. The value for `CC1(C)OCc2c(N3[C@@H]4CC[C@H]3COC4)nc(-c3cnc(N)nc3)nc21` [Example 106, 5-(4-((1R,5S)-3-oxa-8-azabicyclo[3.2.1]octan-8-yl)-7,7-dimethyl-5,7-dihydrofuro[3,4-d]pyrimidin-2-yl)pyrimidin-2-amine] was 10 nM. The value for `COCC[C@]1(C)OCc2c(N3CCOC[C@@H]3C)nc(-c3ccc(N)nc3)nc21` [Example 111 hf^1] was 101 nM and 30 nM; that for `CC1(C)OCc2c(N3CCOCC3)nc(-c3ccc4nc(N)[nH]c4c3)nc21` [Example 118, 6-(7,7-dimethyl-4-morpholino-5,7-dihydrofuro[3,4-d]pyrimidin-2-yl)-1H-benzo[d]imidazol-2-amine] was 4 nM; that for `C[C@H]1COCCN1c1nc(-c2ccc3nc(N)[nH]c3c2)nc2c1COC2(C)C` [Example 122, (S)-6-(7,7-dimethyl-4-(3-methylmorpholino)-5,7-dihydrofuro[3,4-d]pyrimidin-2-yl)-1H-benzo[d]imidazol-2-amine] was 7 nM.
